Experimental data as given in PubChem BioAssay AID256 (DTP/NCI, 2004).
Several values for one entry are separate records, joined by “and”; a condition that tells them apart may be missing. Equal entries are not always repeated. Toxic doses and inconclusive results are not listed.

Test system: CD2F1 mice, L1210 leukemia ip, survival T/C
Test: NCI In Vivo Anticancer Drug Screen. Data for tumor model L1210 Leukemia (intraperitoneal) in CD2F1 (CDF1) mice
Conditions: endpoint: mean survival time, higher = longer survival
Method: The antitumor activity of compounds was measured in mice bearing transplantable tumors. Survival or tumor size were measured and the results are expressed as the measurement made in the treated group (T) divided by the measurement made in the vehicle treated control group (C). The tumor model used in this assay is L1210 Leukemia (intraperitoneal) in CD2F1 (CDF1) mice

[1] = dose: 100.0 mg/kg/injection, schedule: Q04DX003 (ip), vehicle: saline
[2] = dose: 100.0 mg/kg/injection, schedule: Q04DX003 (ip), vehicle: saline with Tween-80
[3] = dose: 200.0 mg/kg/injection, schedule: Q04DX003 (ip), vehicle: saline with Tween-80
[4] = dose: 400.0 mg/kg/injection, schedule: Q04DX003 (ip), vehicle: saline with Tween-80
[5] = dose: 25.0 mg/kg/injection, schedule: Q04DX002 (ip), vehicle: saline with Tween-80
[6] = dose: 100.0 mg/kg/injection, schedule: Q01DX001 (ip), vehicle: saline with Tween-80
[7] = dose: 200.0 mg/kg/injection, schedule: Q01DX001 (ip), vehicle: saline with Tween-80
[8] = dose: 100.0 mg/kg/injection, schedule: Q04DX002 (ip), vehicle: saline with Tween-80
[9] = dose: 100.0 mg/kg/injection, schedule: Q01DX009 (ip), vehicle: saline
[10] = dose: 200.0 mg/kg/injection, schedule: Q01DX009 (ip), vehicle: saline
[11] = dose: 400.0 mg/kg/injection, schedule: Q01DX009 (ip), vehicle: saline
[12] = dose: 25.0 mg/kg/injection, schedule: Q01DX009 (ip), vehicle: saline
[13] = dose: 1.56 mg/kg/injection, schedule: Q01DX009 (ip), vehicle: saline
[14] = dose: 6.25 mg/kg/injection, schedule: Q01DX009 (ip), vehicle: saline
[15] = dose: 12.5 mg/kg/injection, schedule: Q01DX009 (ip), vehicle: saline
[16] = dose: 50.0 mg/kg/injection, schedule: Q01DX009 (ip), vehicle: saline

`CC1=C2CC3CCC(C)C2(CC1)C3(C)C` (stereo not drawn) was tested, and the T/C (dose: 100.0 mg/kg/injection, schedule: Q04DX002 (ip), vehicle: Klucel (hydroxypropylcellulose) (HPC)) was 111 % of control, the T/C [1] was 96 % of control and the T/C (dose: 200.0 mg/kg/injection, schedule: Q04DX002 (ip), vehicle: Klucel (hydroxypropylcellulose) (HPC)) was 96 % of control. The T/C (dose: 200.0 mg/kg/injection, schedule: Q04DX003 (ip), vehicle: saline) was 98 % of control, the T/C (dose: 400.0 mg/kg/injection, schedule: Q04DX002 (ip), vehicle: Klucel (hydroxypropylcellulose) (HPC)) was 96 % of control and the T/C (dose: 400.0 mg/kg/injection, schedule: Q04DX003 (ip), vehicle: saline) was 106 % of control.

In the case of `Cc1ccc([N+](=O)[O-])cc1NC(=O)N1CCC(C)CC1`, the T/C (dose: 50.0 mg/kg/injection, schedule: Q01DX009 (ip), vehicle: Klucel (hydroxypropylcellulose) (HPC)) is reported as 98 % of control, the T/C (dose: 100.0 mg/kg/injection, schedule: Q01DX009 (ip), vehicle: Klucel (hydroxypropylcellulose) (HPC)) is reported as 96 % of control and the T/C (dose: 200.0 mg/kg/injection, schedule: Q01DX009 (ip), vehicle: Klucel (hydroxypropylcellulose) (HPC)) is reported as 101 % of control.

In the case of `CC(C)(C)OC(=O)N1CCCC1C(=O)O` (stereo not drawn), the T/C [2] is reported as 96 % of control, the T/C [3] is reported as 101 % of control and the T/C [4] is reported as 110 % of control.

`CCOC(=O)c1cc(OC(C)=O)c2c(ccc3ccccc32)c1C` was tested, and the T/C (dose: 100.0 mg/kg/injection, schedule: Q04DX003 (ip), vehicle: Klucel (hydroxypropylcellulose) (HPC)) was 101 % of control, the T/C (dose: 200.0 mg/kg/injection, schedule: Q04DX003 (ip), vehicle: Klucel (hydroxypropylcellulose) (HPC)) was 104 % of control and the T/C (dose: 400.0 mg/kg/injection, schedule: Q04DX003 (ip), vehicle: Klucel (hydroxypropylcellulose) (HPC)) was 97 % of control.

For `CCN(CC)C(=S)N1C(=O)C2C3CCC(O3)C2C1=O` (stereo not drawn), the T/C [5] was 93 % of control.

`CCCCP(=O)(O)O` was tested, and the T/C [6] was 92 % of control and the T/C [7] was 100 % of control.

In the case of `Nc1nc(N)c2nc(COc3ccc(C(=O)NC(CCC(=O)O)C(=O)O)cc3)ccc2n1` (stereo not drawn), the T/C (dose: 15.63 micrograms/kg/injection, schedule: Q01DX005 (ip), vehicle: sodium bicarbonate) is reported as 103 % of control and 106 % of control, the T/C (dose: 31.25 micrograms/kg/injection, schedule: Q01DX005 (ip), vehicle: sodium bicarbonate) is reported as 120 % of control and 107 % of control and the T/C (dose: 62.5 micrograms/kg/injection, schedule: Q01DX005 (ip), vehicle: sodium bicarbonate) is reported as 113 % of control.

`O=[N+]([O-])O.[Cr+3].[NH2-].[NH2-].[NH2-].[NH2-].[NH2-].[NH2-]` was tested, and the T/C (dose: 6.25 mg/kg/injection, schedule: Q01DX009 (ip), vehicle: saline sonified) was 88 % of control, the T/C (dose: 12.5 mg/kg/injection, schedule: Q01DX009 (ip), vehicle: saline sonified) was 97 % of control and the T/C (dose: 25.0 mg/kg/injection, schedule: Q01DX009 (ip), vehicle: saline sonified) was 90 % of control.

`COc1cc2c(cc1OC)C(Cc1ccc([N+](=O)[O-])cc1)=NCC2` was tested, and the T/C (dose: 100.0 mg/kg/injection, schedule: Q01DX001 (ip), vehicle: saline) was 96 % of control, the T/C (dose: 200.0 mg/kg/injection, schedule: Q01DX001 (ip), vehicle: saline) was 96 % of control and the T/C (dose: 400.0 mg/kg/injection, schedule: Q01DX001 (ip), vehicle: saline) was 102 % of control.

With `O=C(COc1c(Cl)cc(Cl)cc1Cl)Nc1ccc2c(c1)C(=O)c1ccccc1C2=O` the T/C [5] was 98 % of control, the T/C (dose: 50.0 mg/kg/injection, schedule: Q04DX002 (ip), vehicle: saline with Tween-80) was 98 % of control and the T/C [8] was 94 % of control.

In the case of `COCC(=O)C(C(C)=O)C(c1ccc2c(c1)OCO2)C(C(C)=O)C(=O)COC` (stereo not drawn), the T/C [2] is reported as 96 % of control, the T/C [3] is reported as 101 % of control and the T/C [4] is reported as 96 % of control.

For `O=c1cc(Nc2ccc(Br)cc2)[nH]c(=O)[nH]1`, the T/C (dose: 100.0 mg/kg/injection, schedule: Q01DX001 (ip), vehicle: other) was 92 % of control and the T/C (dose: 200.0 mg/kg/injection, schedule: Q01DX001 (ip), vehicle: other) was 92 % of control.

In the case of `CCCCCCCCCCCCCCCCC(CCC)C1CCCCC1` (stereo not drawn), the T/C [6] is reported as 92 % of control, the T/C [7] is reported as 104 % of control and the T/C (dose: 400.0 mg/kg/injection, schedule: Q01DX001 (ip), vehicle: saline with Tween-80) is reported as 101 % of control.

With `NC(N)=NC(N)=Nc1ccc(C(=O)O)c(O)c1` the T/C [9] was 106 % of control, the T/C [10] was 95 % of control and the T/C [11] was 95 % of control.

`Cc1ccc2ccccc2c1N(CC(=O)O)S(=O)(=O)c1ccccc1` was tested, and the T/C (dose: 100.0 mg/kg/injection, schedule: Q01DX009 (ip), vehicle: saline with Tween-80) was 103 % of control, the T/C (dose: 200.0 mg/kg/injection, schedule: Q01DX009 (ip), vehicle: saline with Tween-80) was 101 % of control and the T/C (dose: 400.0 mg/kg/injection, schedule: Q01DX009 (ip), vehicle: saline with Tween-80) was 88 % of control.

With `O=C(NO)c1cc(Br)cc(Br)c1O` the T/C [8] was 96 % of control, the T/C (dose: 200.0 mg/kg/injection, schedule: Q04DX002 (ip), vehicle: saline with Tween-80) was 92 % of control and the T/C (dose: 400.0 mg/kg/injection, schedule: Q04DX002 (ip), vehicle: saline with Tween-80) was 103 % of control.

In the case of `COc1cccc(/C=N/OCCNC(=O)c2ccc([N+](=O)[O-])cc2)c1`, the T/C [2] is reported as 97 % of control, the T/C [3] is reported as 93 % of control and the T/C [4] is reported as 101 % of control.

With `CC1=CC(=O)C(CCC#N)C(C)(C)C1` (stereo not drawn) the T/C [8] was 91 % of control.

`CCCCCC(Br)C(Br)CC(Br)C(Br)CC(Br)C(Br)CCCCC(=O)O` (stereo not drawn) was tested, and the T/C (dose: 100.0 mg/kg/injection, schedule: Q01DX001 (ip), vehicle: Klucel (hydroxypropylcellulose) (HPC)) was 101 % of control, the T/C (dose: 200.0 mg/kg/injection, schedule: Q01DX001 (ip), vehicle: Klucel (hydroxypropylcellulose) (HPC)) was 96 % of control and the T/C (dose: 400.0 mg/kg/injection, schedule: Q01DX001 (ip), vehicle: Klucel (hydroxypropylcellulose) (HPC)) was 107 % of control.

With `CC(C)=CCC/C(C)=C/CN` the T/C [12] was 98 % of control and the T/C [1] was 86 % of control.

`O=C(/C(=N\O)c1ccc(Cl)cc1)c1ccc(Cl)cc1` was tested, and the T/C [2] was 95 % of control and the T/C [3] was 87 % of control.

In the case of `N\C([S-])=N/N=C\C(=N/N=C(\N)[S-])C(O)C(O)C(O)CO.[Ni+2]` (stereo not drawn), the T/C (dose: 80.5 mg/kg/injection, schedule: Q01DX009 (ip), vehicle: saline with Tween-80) is reported as 102 % of control and the T/C (dose: 161.0 mg/kg/injection, schedule: Q01DX009 (ip), vehicle: saline with Tween-80) is reported as 95 % of control.

With `O=C(O)C(=Cc1ccnc2ccccc12)C(=O)O` the T/C [9] was 100 % of control, the T/C [2] was 111 % of control and the T/C [10] was 94 % of control. For the same compound, the T/C [3] was 100 % of control, the T/C [11] was 111 % of control and the T/C [4] was 98 % of control.

`F[B-](F)(F)F` was tested, and the T/C (dose: 12.5 mg/kg/injection, schedule: Q01DX009 (ip), vehicle: gum acacia) was 94 % of control and 106 % of control, the T/C (dose: 25.0 mg/kg/injection, schedule: Q01DX009 (ip), vehicle: gum acacia) was 98 % of control and the T/C (dose: 50.0 mg/kg/injection, schedule: Q01DX009 (ip), vehicle: gum acacia) was 96 % of control and 106 % of control. The T/C (dose: 100.0 mg/kg/injection, schedule: Q01DX009 (ip), vehicle: gum acacia) was 95 % of control and 101 % of control, the T/C (dose: 200.0 mg/kg/injection, schedule: Q01DX009 (ip), vehicle: gum acacia) was 109 % of control and the T/C (dose: 400.0 mg/kg/injection, schedule: Q01DX009 (ip), vehicle: gum acacia) was 98 % of control.

In the case of `NC(=S)/C(N)=N/Nc1ccc(Cl)cc1`, the T/C (dose: 0.39 mg/kg/injection, schedule: Q01DX009 (ip), vehicle: saline) is reported as 101 % of control, the T/C (dose: 0.78 mg/kg/injection, schedule: Q01DX009 (ip), vehicle: saline) is reported as 104 % of control and the T/C [13] is reported as 108 % of control. For the same compound, the T/C (dose: 3.12 mg/kg/injection, schedule: Q01DX009 (ip), vehicle: saline) was 107 % of control, the T/C [14] was 96 % of control and 110 % of control and the T/C [15] was 113 % of control and 93 % of control. The T/C [12] was 100 % of control and the T/C [16] was 100 % of control.

For `COC(=O)C1C2CCC(C2)C1C(=O)O` (stereo not drawn), the T/C [9] was 96 % of control, the T/C [10] was 96 % of control and the T/C [11] was 94 % of control.

For `Nc1ncn(C2OC(COC(=O)c3ccccc3)C(OC(=O)c3ccccc3)C2OC(=O)c2ccccc2)c(=O)n1` (stereo not drawn), the T/C [13] was 108 % of control, the T/C [14] was 164 % of control and 170 % of control and the T/C [15] was 205 % of control and 227 % of control. For the same compound, the T/C [12] was 115 % of control and 124 % of control and the T/C [16] was 91 % of control and 93 % of control.
